The subject of this assay is P388 leukemia ip, CD2F1 mice, survival T/C. Briefly: NCI In Vivo Anticancer Drug Screen. Data for tumor model P388 Leukemia (intraperitoneal) in CD2F1 (CDF1) mice. The settings on record: endpoint: median survival time, higher = longer survival. Put shortly:
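Mice carrying the transplanted tumor received test compound or vehicle. Survival was recorded in each group, and the value is the treated-group measurement divided by that of the vehicle-treated control group.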

The mark [1] stands for this setting: dose: 50.0 mg/kg/injection, schedule: Q01DX005 (ip), vehicle: saline with Tween-80.
Setting [2] is: dose: 100.0 mg/kg/injection, schedule: Q01DX005 (ip), vehicle: saline with Tween-80.
Where [3] appears, read: dose: 200.0 mg/kg/injection, schedule: Q01DX005 (ip), vehicle: saline with Tween-80.
Where [4] appears, read: dose: 50.0 mg/kg/injection, schedule: Q01DX009 (ip), vehicle: saline.
The mark [5] stands for this setting: dose: 100.0 mg/kg/injection, schedule: Q01DX009 (ip), vehicle: saline.
The mark [6] stands for this setting: dose: 200.0 mg/kg/injection, schedule: Q01DX009 (ip), vehicle: saline.
The mark [7] stands for this setting: dose: 60.0 mg/kg/injection, schedule: Q01DX005 (ip), vehicle: saline with Tween-80.
[8] abbreviates: dose: 120.0 mg/kg/injection, schedule: Q01DX005 (ip), vehicle: saline with Tween-80.
The mark [9] stands for this setting: dose: 240.0 mg/kg/injection, schedule: Q01DX005 (ip), vehicle: saline with Tween-80.
Setting [10] is: dose: 3.12 mg/kg/injection, schedule: Q01DX009 (ip), vehicle: saline with Tween-80.
[11] abbreviates: dose: 1.56 mg/kg/injection, schedule: Q04DX003 (ip), vehicle: other.
The mark [12] stands for this setting: dose: 3.13 mg/kg/injection, schedule: Q04DX003 (ip), vehicle: other.
The mark [13] stands for this setting: dose: 6.25 mg/kg/injection, schedule: Q04DX003 (ip), vehicle: other.
Where [14] appears, read: dose: 12.5 mg/kg/injection, schedule: Q04DX003 (ip), vehicle: other.

“And” between values parts separate entries of the source, which are not always exact repeats. Identical values can stand only once. Inconclusive results and toxic doses are left out.

In the case of `COc1cccc2c1C(=O)C(C1CO1)=CC2=O` (stereo not given), the T/C (dose: 12.5 mg/kg/injection, schedule: Q01DX001 (ip), vehicle: Klucel (hydroxypropylcellulose) (HPC)) is 88 % of control and the T/C (dose: 25.0 mg/kg/injection, schedule: Q01DX001 (ip), vehicle: Klucel (hydroxypropylcellulose) (HPC)) is 95 % of control.

`Cc1cccc2c(=O)c(CCl)c(-c3ccccc3)sc12`: the T/C under setting [1] was 103 % of control, the T/C under setting [2] was 116 % of control and the T/C under setting [3] is 119 % of control.

For `N#CCCS(=O)(=O)c1ccc(Cl)cc1`, the T/C under setting [4] is 99 % of control, the T/C under setting [5] was 100 % of control and the T/C under setting [6] was 100 % of control.

`COc1cc(/C=C/C(=O)Sc2ccccc2)cc(OC)c1O`: the T/C was 109 % of control under setting [7], 105 % of control under setting [8] and 100 % of control under setting [9].

As for `COc1ccc(/C=C/Cc2cc3c(cc2O)OCO3)cc1`, the T/C by setting is: under setting [7], 104 % of control; under setting [8], 101 % of control; under setting [9], 101 % of control.

As to `O=C(CBr)N1c2ccccc2Sc2c1ccc1ccccc21`, the T/C by setting is: (dose: 6.25 mg/kg/injection, schedule: Q01DX009 (ip), vehicle: Klucel (hydroxypropylcellulose) (HPC)) 86 % of control; (dose: 12.5 mg/kg/injection, schedule: Q01DX009 (ip), vehicle: Klucel (hydroxypropylcellulose) (HPC)) 111 % of control; (dose: 25.0 mg/kg/injection, schedule: Q01DX009 (ip), vehicle: Klucel (hydroxypropylcellulose) (HPC)) 117 % of control; (dose: 50.0 mg/kg/injection, schedule: Q01DX009 (ip), vehicle: Klucel (hydroxypropylcellulose) (HPC)) 117 % of control; (dose: 50.0 mg/kg/injection, schedule: Q04DX003 (ip), vehicle: Klucel (hydroxypropylcellulose) (HPC)) 99 % of control and 114 % of control; (dose: 100.0 mg/kg/injection, schedule: Q01DX009 (ip), vehicle: Klucel (hydroxypropylcellulose) (HPC)) 120 % of control. For the same molecule, the T/C runs as follows: (dose: 100.0 mg/kg/injection, schedule: Q04DX003 (ip), vehicle: Klucel (hydroxypropylcellulose) (HPC)) 99 % of control and 113 % of control and 120 % of control; (dose: 200.0 mg/kg/injection, schedule: Q01DX009 (ip), vehicle: Klucel (hydroxypropylcellulose) (HPC)) 120 % of control; (dose: 200.0 mg/kg/injection, schedule: Q04DX003 (ip), vehicle: Klucel (hydroxypropylcellulose) (HPC)) 101 % of control and 120 % of control and 87 % of control; (dose: 400.0 mg/kg/injection, schedule: Q04DX003 (ip), vehicle: Klucel (hydroxypropylcellulose) (HPC)) 106 % of control and 123 % of control.

As to `CCS(=O)(=O)OCCF`, the T/C (dose: 0.78 mg/kg/injection, schedule: Q01DX009 (ip), vehicle: saline with Tween-80) is 106 % of control; the T/C (dose: 1.56 mg/kg/injection, schedule: Q01DX009 (ip), vehicle: saline with Tween-80) is 111 % of control; the T/C under setting [10] was 106 % of control and 91 % of control.

Consider `c1ccc2c(c1)Nc1ccc3ccccc3c1S2`, for which the T/C runs as follows: (dose: 25.0 mg/kg/injection, schedule: Q01DX009 (ip), vehicle: saline with Tween-80) 98 % of control; (dose: 50.0 mg/kg/injection, schedule: Q01DX009 (ip), vehicle: saline with Tween-80) 105 % of control; (dose: 100.0 mg/kg/injection, schedule: Q01DX009 (ip), vehicle: saline with Tween-80) 96 % of control; (dose: 200.0 mg/kg/injection, schedule: Q01DX009 (ip), vehicle: saline with Tween-80) 108 % of control.

For the molecule `Nc1cc2c(c[n+](CCCCCCCC[n+]3cc4c5ccccc5c(N)cc4c4ccccc43)c3ccccc23)c2ccccc12`, the T/C was 161 % of control under setting [11]; 158 % of control and 161 % of control under setting [12]; 152 % of control and 205 % of control under setting [13]; 168 % of control under setting [14]; 93 % of control (dose: 25.0 mg/kg/injection, schedule: Q04DX003 (ip), vehicle: other); 86 % of control (dose: 50.0 mg/kg/injection, schedule: Q04DX003 (ip), vehicle: other).

With `Nc1cc2c(c[n+](CCCCCCC[n+]3cc4c5ccccc5c(N)cc4c4ccccc43)c3ccccc23)c2ccccc12`, the T/C runs as follows: under setting [11], 150 % of control and 153 % of control; under setting [12], 155 % of control; under setting [13], 150 % of control and 173 % of control; under setting [14], 166 % of control and 180 % of control.

Take `COc1cc2c[n+]3ccc4ccccc4c3c(N)c2cc1OC`: the T/C was 97 % of control (dose: 50.0 mg/kg/injection, schedule: Q04DX003 (ip), vehicle: distilled water + Tween-80) and 106 % of control (dose: 100.0 mg/kg/injection, schedule: Q04DX003 (ip), vehicle: distilled water + Tween-80).

For `C[C@@]12C(=O)OC(=O)[C@]1(C)[C@H]1CC[C@@H]2O1`, the T/C was 105 % of control (dose: 0.5 mg/kg/injection, schedule: Q01DX005 (ip), vehicle: acetone); 102 % of control (dose: 62.5 micrograms/kg/injection, schedule: Q01DX005 (ip), vehicle: acetone); 107 % of control (dose: 125.0 micrograms/kg/injection, schedule: Q01DX005 (ip), vehicle: acetone); 102 % of control (dose: 250.0 micrograms/kg/injection, schedule: Q01DX005 (ip), vehicle: acetone); 102 % of control (dose: 500.0 micrograms/kg/injection, schedule: Q01DX005 (ip), vehicle: acetone).

Consider `Cc1ccc(CCNC(=O)c2c3nc4c(C(=O)NCCc5ccc(C)cc5)cccc4oc-3cc(=O)c2N)cc1`, for which the T/C is 93 % of control under setting [1], 87 % of control under setting [2] and 100 % of control under setting [3].

With `CCCCOC(=O)CNCC(=O)OCCCC`, the T/C by setting is: under setting [7], 100 % of control; under setting [8], 101 % of control; under setting [9], 104 % of control.

For the molecule `[Cl][Zr][Cl].[c-]1[c-][c-][c-](Cc2ccccc2)[c-]1.[c-]1[c-][c-][c-](Cc2ccccc2)[c-]1`, the T/C reads like this: under setting [10], 104 % of control; (dose: 6.25 mg/kg/injection, schedule: Q01DX009 (ip), vehicle: saline with Tween-80) 89 % of control; (dose: 12.5 mg/kg/injection, schedule: Q01DX009 (ip), vehicle: saline with Tween-80) 86 % of control.

In the case of `C[Si](C)(C)OC=C1CCCCC1`, the T/C (dose: 50.0 mg/kg/injection, schedule: Q01DX009 (ip), vehicle: olive oil, sesame oil, peanut oil) is 113 % of control; the T/C (dose: 100.0 mg/kg/injection, schedule: Q01DX009 (ip), vehicle: olive oil, sesame oil, peanut oil) was 122 % of control; the T/C (dose: 200.0 mg/kg/injection, schedule: Q01DX009 (ip), vehicle: olive oil, sesame oil, peanut oil) is 108 % of control.

Take `CCCCCCCC(O)CCCCCCC`: the T/C is 100 % of control (dose: 100.0 mg/kg/injection, schedule: Q04DX003 (ip), vehicle: other); 100 % of control (dose: 200.0 mg/kg/injection, schedule: Q04DX003 (ip), vehicle: other); 109 % of control (dose: 400.0 mg/kg/injection, schedule: Q04DX003 (ip), vehicle: other).

As to `COc1cc2cc(c1Cl)N(C)C(=O)CC(OC(=O)CC(C)C)C1(C)OC1C(C)C1CC(O)(NC(=O)O1)C(OC)/C=C/C=C(C)C2` (stereo not given), the T/C is 113 % of control (dose: 6.2 micrograms/kg/injection, schedule: Q01DX009 (ip), vehicle: saline + alcohol); 111 % of control and 120 % of control (dose: 6.25 micrograms/kg/injection, schedule: Q01DX009 (ip), vehicle: saline + alcohol); 106 % of control (dose: 100.0 micrograms/kg/injection, schedule: Q01DX009 (ip), vehicle: saline + alcohol).

With `CCOC1=CS(C)(=O)=NC(SC)=C1C#N` (stereo not given), the T/C is 99 % of control (dose: 50.0 mg/kg/injection, schedule: Q01DX001 (ip), vehicle: Klucel (hydroxypropylcellulose) (HPC)); 105 % of control (dose: 100.0 mg/kg/injection, schedule: Q01DX001 (ip), vehicle: Klucel (hydroxypropylcellulose) (HPC)); 99 % of control (dose: 200.0 mg/kg/injection, schedule: Q01DX001 (ip), vehicle: Klucel (hydroxypropylcellulose) (HPC)).

Regarding `O=C1CCCc2c1ccc1ccccc21`, the T/C runs as follows: under setting [1], 100 % of control; under setting [2], 101 % of control; under setting [3], 98 % of control.

In the case of `COC[n+]1cccc(C2CCC[N+]2(C)C)c1` (stereo not given), the T/C was 101 % of control under setting [4], 107 % of control under setting [5] and 114 % of control under setting [6].

Source of the values: PubChem BioAssay AID330 (DTP/NCI, 2004).
